The text below walks through data of patent publication US20160199369A1, “Extruded Immediate Release Abuse Deterrent Pill” (priority 2013, published 2016).

The nature of data set [1]: General solubility of exemplary components. It counts as physicochemical. To be noted: 200 proof ethanol, filtered through 0.22 micrometer PTFE filter. The source says:
The following table lists the relative solubility of exemplary components of a formulation. A number of different dyes are listed along with their solubility information taken from the various literature sources and tested experimentally (200 proof ethanol and filtered through a 0.22 micrometer PTFE filter).

The conditions of data set [2]: relative solubility, yes/no; cited from earlier work.

Turning to `COc1cc(S(=O)(=O)[O-])c(C)cc1N=Nc1c(O)ccc2cc(S(=O)(=O)[O-])ccc12.[Na+].[Na+]` [FD&C Red #40], the “Alcohol Solubility (tested)” value in data set [1] was “Yes”. Further, in data set [2], the “Alcohol Solubility (Literature)” value is on record as “Yes” and the “Water Solubility” value was “Yes”.
Regarding `O=C1/C(=C2\Nc3ccc(S(=O)(=O)[O-])cc3C2=O)Nc2ccc(S(=O)(=O)[O-])cc21.[Na+].[Na+]` [FD&C Blue #2], the “Alcohol Solubility (tested)” value in data set [1] was “Yes”. For the same molecule, in data set [2], the “Alcohol Solubility (Literature)” value is reported as “Yes” and the “Water Solubility” value is recorded as “Yes”.
As for `CCN(Cc1cccc(S(=O)(=O)[O-])c1)c1ccc(C(=C2C=CC(=[N+](CC)Cc3cccc(S(=O)(=O)[O-])c3)C=C2)c2ccccc2S(=O)(=O)[O-])cc1.[Na+].[Na+]` [FD&C Blue #1], in data set [2], the “Alcohol Solubility (Literature)” value is recorded as “Yes” and the “Water Solubility” value is “Yes”.
As for `O=C([O-])C1=NN(c2ccc(S(=O)(=O)[O-])cc2)C(=O)C1N=Nc1ccc(S(=O)(=O)[O-])cc1.[Na+].[Na+].[Na+]` (stereo not shown) [FD&C Yellow #5], the “Alcohol Solubility (tested)” value in data set [1] is reported as “Yes”. In addition, in data set [2], the “Alcohol Solubility (Literature)” value was “Yes” and the “Water Solubility” value is “Yes”.
As to `COc1ccc2c3c1O[C@H]1C(=O)CC[C@@]4(O)[C@@H](C2)N(C)CC[C@]314.Cl` [Oxycodone HCl, reference compound], in data set [2], the “Alcohol Solubility (Literature)” value is “Yes” and the “Water Solubility” value was “Yes”.
